Laboratory results: PubChem BioAssay AID2060624 (Molecular Pharmacology Branch, DTP, NCI, 2025)

Tested on: 217524-143-R1-J4-PDC spheroids with HUVEC/MSC, viability
Experiment: Anticancer human tumor 217524-143-R1-J4-PDC patient-derived pancreatic carcinoma cell line growth inhibition [CLK]
Conditions: for IC50: curve of first compound; for viability, T/C: stronger effect = lower value
Outline: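 Patient-derived tumor cells grown as complex spheroids with HUVEC endothelial cells and mesenchymal stem cells, treated with drug combinations. Concentrations descend in half-log steps from near clinical Cmax, or from 10 microM if Cmax unknown.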
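Note: spheroids exposed to agents for seven days before reading.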
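Throughout, for viability, T/C: 100% = DMSO vehicle control viability.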

With Cn1ncnc1[C@H]1c2n[nH]c(=O)c3cc(F)cc(c23)N[C@@H]1c1ccc(F)cc1 + CNC(=O)c1ccc(Nc2nc(OC3CCCC3)c3c(-c4ccc5nc(C)oc5c4)c[nH]c3n2)c(OC)c1 the IC50 (second compound 0.0316 µM) was over 100 nM, the IC50 (second compound 0.1 µM) was under 0.316 nM and the IC50 (second compound 0.316 µM) was under 0.316 nM. The IC50 (second compound 1 µM) was under 0.316 nM, the IC50 (second compound 3.16 µM) was under 0.316 nM and the IC50 (second compound 10 µM) was under 0.316 nM. The viability, T/C (second compound 0.0316 µM, first compound 0.000316 µM) was 101%, the viability, T/C (second compound 0.0316 µM, first compound 0.001 µM) was 68.8% and the viability, T/C (second compound 0.0316 µM, first compound 0.00316 µM) was 86.1%. The viability, T/C (second compound 0.0316 µM, first compound 0.01 µM) was 85%, the viability, T/C (second compound 0.0316 µM, first compound 0.0316 µM) was 83.4% and the viability, T/C (second compound 0.0316 µM, first compound 0.1 µM) was 75.5%. The viability, T/C (second compound 0.1 µM, first compound 0.000316 µM) was 43.6%, the viability, T/C (second compound 0.1 µM, first compound 0.001 µM) was 44.8% and the viability, T/C (second compound 0.1 µM, first compound 0.00316 µM) was 41.6%. For the same compound, the viability, T/C (second compound 0.1 µM, first compound 0.01 µM) was 37.5%, the viability, T/C (second compound 0.1 µM, first compound 0.0316 µM) was 38.6% and the viability, T/C (second compound 0.1 µM, first compound 0.1 µM) was 31.4%. The viability, T/C (second compound 0.316 µM, first compound 0.000316 µM) was 34.5%, the viability, T/C (second compound 0.316 µM, first compound 0.001 µM) was 42.8% and the viability, T/C (second compound 0.316 µM, first compound 0.00316 µM) was 34.1%. For the same compound, the viability, T/C (second compound 0.316 µM, first compound 0.01 µM) was 39%, the viability, T/C (second compound 0.316 µM, first compound 0.0316 µM) was 39.9% and the viability, T/C (second compound 0.316 µM, first compound 0.1 µM) was 37.3%. For the same compound, the viability, T/C (second compound 1 µM, first compound 0.000316 µM) was 23.3%, the viability, T/C (second compound 1 µM, first compound 0.001 µM) was 32.8% and the viability, T/C (second compound 1 µM, first compound 0.00316 µM) was 30.6%. It also gave a viability, T/C (second compound 1 µM, first compound 0.01 µM) of 23.3%, a viability, T/C (second compound 1 µM, first compound 0.0316 µM) of 21.3% and a viability, T/C (second compound 1 µM, first compound 0.1 µM) of 25.8%. It also gave a viability, T/C (second compound 3.16 µM, first compound 0.000316 µM) of 28.6%, a viability, T/C (second compound 3.16 µM, first compound 0.001 µM) of 23.7% and a viability, T/C (second compound 3.16 µM, first compound 0.00316 µM) of 27.2%. The viability, T/C (second compound 3.16 µM, first compound 0.01 µM) was 23.2%, the viability, T/C (second compound 3.16 µM, first compound 0.0316 µM) was 24.4% and the viability, T/C (second compound 3.16 µM, first compound 0.1 µM) was 23.6%. The viability, T/C (second compound 10 µM, first compound 0.000316 µM) was 29%, the viability, T/C (second compound 10 µM, first compound 0.001 µM) was 25.5% and the viability, T/C (second compound 10 µM, first compound 0.00316 µM) was 24.7%. It also gave a viability, T/C (second compound 10 µM, first compound 0.01 µM) of 24.6%, a viability, T/C (second compound 10 µM, first compound 0.0316 µM) of 24.3% and a viability, T/C (second compound 10 µM, first compound 0.1 µM) of 21.2%.
